Measurements reported in PubChem BioAssay (NCI).
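Cells were grown in 96-well plates and exposed to each compound for 48 hours at five concentrations; endpoints were interpolated linearly between bracketing concentrations, or set to the highest concentration if not reached. TGI: total growth inhibition.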

How the values were obtained:
Test in all cases: growth of human tumour cells (NCI), 48 h
TK-10 renal = tested on: TK-10 renal
OVCAR-5 ovarian = tested on: OVCAR-5 ovarian
KM20L2 colon = tested on: KM20L2 colon
DMS 273 small cell lung = tested on: DMS 273 small cell lung
NCI-H23 lung = tested on: NCI-H23 lung
MOLT-4 leukemia = tested on: MOLT-4 leukemia
LOX IMVI melanoma = tested on: LOX IMVI melanoma
M14 melanoma = tested on: M14 melanoma
COLO 205 colon = tested on: COLO 205 colon
A549 NSCLC = tested on: A549 NSCLC
NCI-H522 lung = tested on: NCI-H522 lung
SNB-78 CNS = tested on: SNB-78 CNS
UO-31 renal = tested on: UO-31 renal
CCRF-CEM leukemia = tested on: CCRF-CEM leukemia
SR leukemia = tested on: SR leukemia
SK-MEL-28 melanoma = tested on: SK-MEL-28 melanoma
OVCAR-4 ovarian = tested on: OVCAR-4 ovarian
SW-620 colon = tested on: SW-620 colon
SF-295 CNS = tested on: SF-295 CNS
OVCAR-3 ovarian = tested on: OVCAR-3 ovarian
ACHN renal = tested on: ACHN renal
SK-MEL-5 melanoma = tested on: SK-MEL-5 melanoma
UACC-62 melanoma = tested on: UACC-62 melanoma
SNB-19 CNS = tested on: SNB-19 CNS
OVCAR-8 ovarian = tested on: OVCAR-8 ovarian
HT29 colon = tested on: HT29 colon
SN12C renal = tested on: SN12C renal
M19-MEL melanoma = tested on: M19-MEL melanoma
RPMI-8226 leukemia = tested on: RPMI-8226 leukemia
NCI-H460 lung = tested on: NCI-H460 lung
LXFL 529 NSCLC = tested on: LXFL 529 NSCLC
HCT-15 colon = tested on: HCT-15 colon
DMS 114 small cell lung = tested on: DMS 114 small cell lung
NCI-H226 lung = tested on: NCI-H226 lung
EKVX NSCLC = tested on: EKVX NSCLC
IGROV1 ovarian = tested on: IGROV1 ovarian
RXF 393 renal = tested on: RXF 393 renal
U251 CNS = tested on: U251 CNS
MALME-3M melanoma = tested on: MALME-3M melanoma
HCT-116 colon = tested on: HCT-116 colon
HOP-62 NSCLC = tested on: HOP-62 NSCLC
SNB-75 CNS = tested on: SNB-75 CNS
786-0 renal = tested on: 786-0 renal
XF 498 CNS = tested on: XF 498 CNS
SK-MEL-2 melanoma = tested on: SK-MEL-2 melanoma
SF-268 CNS = tested on: SF-268 CNS
SF-539 CNS = tested on: SF-539 CNS
CAKI-1 renal = tested on: CAKI-1 renal
HCC-2998 colon = tested on: HCC-2998 colon
DLD-1 colon = tested on: DLD-1 colon
HL-60(TB) leukemia = tested on: HL-60(TB) leukemia
SK-OV-3 ovarian = tested on: SK-OV-3 ovarian
K-562 leukemia = tested on: K-562 leukemia

Measured: TGI

CC(C)(C)S(=O)OC12CC3CC(CC(C3)C1)C2 (stereo not drawn)
not listed: CAKI-1 renal | HCC-2998 colon | DLD-1 colon | HL-60(TB) leukemia | SK-OV-3 ovarian | K-562 leukemia
> 100 µM: all other assays above

C=C(Cl)Cc1c(O)c2c(c(O)c1CC(=C)Cl)C(=O)c1ccccc1C2=O
not listed: NCI-H23 lung | NCI-H522 lung | SNB-78 CNS | UO-31 renal | SK-MEL-28 melanoma | SF-295 CNS | OVCAR-3 ovarian | SNB-19 CNS | HT29 colon | M19-MEL melanoma | NCI-H460 lung | NCI-H226 lung | RXF 393 renal | HCT-116 colon | SNB-75 CNS | SF-268 CNS | SF-539 CNS
> 100 µM: all other assays above
